In the NIST ThermoML archive (doi:10.1021/acs.jced.7b00002):

Test: xn = mol fraction of the nth substance listed
Settings: 97.6 kPa, Liquid; for viscosity: Capillary tube (Ostwald / Ubbelohde) method; for mass density: Vibrating tube method

CCCCCCCC[n+]1ccn(C)c1.[Cl-] [1-methyl-3-octylimidazolium chloride] + CC(=O)N(C)C
Settings	mass density [kg/m3]	viscosity [mPa·s]
303.15 K, x1 = 0.139	958.09	3.63
303.15 K, x1 = 0.273	975.02	14.75
303.15 K, x1 = 0.361	981.93	32.45
303.15 K, x1 = 0.468	988.64	92.29
303.15 K, x1 = 0.602	994.87	288.58
303.15 K, x1 = 0.786	1001.37	1049.5
303.15 K, x1 = 0.877	1003.75	1865.4
303.15 K, x1 = 1	1006.2	7339.7
308.15 K, x1 = 0.139	954.07	3.26
308.15 K, x1 = 0.273	971.38	12.52
308.15 K, x1 = 0.361	978.45	26.51
308.15 K, x1 = 0.468	985.3	70.68
308.15 K, x1 = 0.602	991.72	210.24
308.15 K, x1 = 0.786	998.36	714.83
308.15 K, x1 = 0.877	1000.8	1255
308.15 K, x1 = 1	1003.33	4272.9
313.15 K, x1 = 0.139	950.12	2.94
313.15 K, x1 = 0.273	967.74	10.65
313.15 K, x1 = 0.361	974.97	21.93
313.15 K, x1 = 0.468	981.99	55.22
313.15 K, x1 = 0.602	988.57	156.62
313.15 K, x1 = 0.786	995.34	502.24
313.15 K, x1 = 0.877	997.86	853.26
313.15 K, x1 = 1	1000.48	2766.9
318.15 K, x1 = 0.139	946.26	2.65
318.15 K, x1 = 0.273	964.11	9.2
318.15 K, x1 = 0.361	971.5	18.32
318.15 K, x1 = 0.468	978.68	44.2
318.15 K, x1 = 0.602	985.42	119.22
318.15 K, x1 = 0.786	992.37	358.94
318.15 K, x1 = 0.877	994.92	594.67
318.15 K, x1 = 1	997.64	1788.6
323.15 K, x1 = 0.139	942.47	2.42
323.15 K, x1 = 0.273	960.49	8.02
323.15 K, x1 = 0.361	968.04	15.51
323.15 K, x1 = 0.468	975.38	35.89
323.15 K, x1 = 0.602	982.29	92.49
323.15 K, x1 = 0.786	989.43	263.25
323.15 K, x1 = 0.877	992	425.36
323.15 K, x1 = 1	994.82	1198.7
328.15 K, x1 = 0.139	938.72	2.21
328.15 K, x1 = 0.273	956.87	7.04
328.15 K, x1 = 0.361	964.59	13.24
328.15 K, x1 = 0.468	972.09	29.51
328.15 K, x1 = 0.602	979.16	72.76
328.15 K, x1 = 0.786	986.49	198.27
328.15 K, x1 = 0.877	989.12	310.37
328.15 K, x1 = 1	992	828.3
333.15 K, x1 = 0.139	934.99	2.04
333.15 K, x1 = 0.273	953.26	6.22
333.15 K, x1 = 0.361	961.14	11.44
333.15 K, x1 = 0.468	968.81	24.7
333.15 K, x1 = 0.602	976.05	58.34
333.15 K, x1 = 0.786	983.55	150.45
333.15 K, x1 = 0.877	986.24	231.3
333.15 K, x1 = 1	989.17	588.69
338.15 K, x1 = 0.139	931.23	1.88
338.15 K, x1 = 0.273	949.65	5.53
338.15 K, x1 = 0.361	957.71	9.98
338.15 K, x1 = 0.468	965.54	20.81
338.15 K, x1 = 0.602	972.96	47.46
338.15 K, x1 = 0.786	980.62	116.53
338.15 K, x1 = 0.877	983.37	176.46
338.15 K, x1 = 1	986.38	426.28
343.15 K, x1 = 0.139	927.34	1.74
343.15 K, x1 = 0.273	946.05	4.96
343.15 K, x1 = 0.361	954.28	8.73
343.15 K, x1 = 0.468	962.28	17.72
343.15 K, x1 = 0.602	969.87	38.89
343.15 K, x1 = 0.786	977.69	91.77
343.15 K, x1 = 0.877	980.49	136.74
343.15 K, x1 = 1	983.63	316.66
348.15 K, x1 = 0.139	923.35	1.62
348.15 K, x1 = 0.273	942.44	4.47
348.15 K, x1 = 0.361	950.85	7.7
348.15 K, x1 = 0.468	959.03	15.26
348.15 K, x1 = 0.602	966.79	32.38
348.15 K, x1 = 0.786	974.78	73.67
348.15 K, x1 = 0.877	977.62	107.08
348.15 K, x1 = 1	980.88	237.14
353.15 K, x1 = 0.139	919.35	1.51
353.15 K, x1 = 0.273	938.85	4.05
353.15 K, x1 = 0.361	947.43	6.85
353.15 K, x1 = 0.468	955.78	13.2
353.15 K, x1 = 0.602	963.72	27.28
353.15 K, x1 = 0.786	971.87	59.69
353.15 K, x1 = 0.877	974.77	85.14
353.15 K, x1 = 1	978.13	181.41
